Source: patent US11052245B2, “Device and method for localized delivery and extraction of material” (Helsingin Yliopisto, priority 2015, dated 2021)

Key:
[1] = In-vitro delivery of methylene blue into human nails by MHD, photograph; assay type: in vitro ADME; conditions: MB 0.01% in PBS 1%, MHD for 10 minutes, graphite electrodes ø=6 mm, 3 mm gap, 400 mA, control immersed 10 minutes without MHD
Description: Control: Fingernail was immersed in a solution of MB (0.01%) in PBS (1%) for 10 minutes.
Treatment; Fingernail was immersed in the MB solution and exposed to MHD during 10 minutes. The MHD method applied graphite cylindrical electrodes (ø=6 mm), 3 mm electrode gap, and 400 mA.
The darkest regions correspond to the largest concentration of MB.

[2] = Delivery of phosphotungstic acid into bovine articular cartilage by MHD, imaged with X-ray micro-tomography; assay type: in vitro ADME; conditions: PTA 1% in PBS; MHD for 40 s, graphite electrodes ø=6 mm, 3 mm gap, 400 mA; control immersed 40 s without MHD; XMT of 150 μm slices
From the text: Control: bovine articular cartilage was immersed in 1% PTA (˜2.8 kDa) in phosphate buffered saline (PBS) for 40 s.
Treatment: bovine articular cartilage was immersed in PTA 1% in PBS and exposed to MHD for 40 s. The MHD method applied graphite cylindrical electrodes (ø=6 mm), 3 mm electrode gap, and 400 mA.

Compound	Diffusion of MB into nail, treated sample vs control [1]	Diffusion of PTA into cartilage, treated sample vs control [2]
CN(C)c1ccc2nc3ccc(=[N+](C)C)cc-3sc2c1 [MB, methylene blue]	stronger than in the control	
O=P(O)(O)O.[O]=[W](=[O])=[O].[O]=[W](=[O])=[O].[O]=[W](=[O])=[O].[O]=[W](=[O])=[O].[O]=[W](=[O])=[O].[O]=[W](=[O])=[O].[O]=[W](=[O])=[O].[O]=[W](=[O])=[O].[O]=[W](=[O])=[O].[O]=[W](=[O])=[O].[O]=[W](=[O])=[O].[O]=[W](=[O])=[O] [PTA, phosphotungstic acid]		enhanced diffusion of PTA as compared to the control
